According to PubChem BioAssay (NCI):
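Exposure lasted 48 hours, with cells grown in 96-well plates and compounds tested at five concentrations. TGI: concentration producing complete growth inhibition.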

How the values were obtained:
Assay in all cases: growth of human tumour cells (NCI), 48 h
[1] = system: MDA-MB-231 breast
[2] = system: BT-549 breast
[3] = system: HCT-15 colon
[4] = system: T-47D breast
[5] = system: IGROV1 ovarian
[6] = system: SN12C renal
[7] = system: SK-MEL-2 melanoma
[8] = system: SW-620 colon
[9] = system: PC-3 prostate
[10] = system: SK-MEL-28 melanoma
[11] = system: SK-OV-3 ovarian
[12] = system: UACC-62 melanoma
[13] = system: LOX IMVI melanoma
[14] = system: 786-0 renal
[15] = system: OVCAR-8 ovarian
[16] = system: EKVX NSCLC
[17] = system: SR leukemia
[18] = system: HS 578T breast
[19] = system: SNB-75 CNS
[20] = system: HOP-92 NSCLC

SMILES | TGI [1] | TGI [2] | TGI [3] | TGI [4] | TGI [5] | TGI [6] | TGI [7] | TGI [8] | TGI [9] | TGI [10] | TGI [11] | TGI [12] | TGI [13] | TGI [14] | TGI [15] | TGI [16] | TGI [17] | TGI [18] | TGI [19] | TGI [20]
O=C(NNC(=S)Nc1ccc(Cl)cc1)C12CC3CC(CC(C3)C1)C2 | 19.6 µM | 39.4 µM | 42.5 µM | 41.4 µM | 33.1 µM | 28.7 µM | 38.2 µM | 35.6 µM | 19.2 µM | 60.8 µM | 64.7 µM | 21.8 µM | 19 µM | > 58 µM | > 44.6 µM | 55 µM | 4.83 µM | 83 µM | 51.1 µM | 56.7 µM
Cc1n[nH]c(=O)n1Nc1ccccc1 | > 100 µM | > 100 µM | > 100 µM | > 100 µM | > 100 µM | > 100 µM |  | > 100 µM | > 100 µM | > 100 µM | > 100 µM | > 100 µM | > 100 µM | > 100 µM | > 100 µM | > 100 µM | > 100 µM | > 100 µM | > 100 µM | > 100 µM
COc1ccc(OC)c(N=Cc2cc(OC)c(OC)c(OC)c2)c1 | > 100 µM | > 100 µM | > 100 µM | > 100 µM | > 100 µM | > 100 µM | > 100 µM | > 100 µM | > 100 µM | > 100 µM | > 100 µM | > 100 µM | > 100 µM | > 100 µM | > 100 µM | > 100 µM | > 100 µM | > 100 µM | > 100 µM | > 78 µM
CCCC(=O)N(C)N=Nc1ccc(C(=O)OCC)cc1 | > 100 µM | > 100 µM | > 100 µM | > 100 µM | > 100 µM | > 100 µM | > 100 µM | > 100 µM | > 100 µM | > 100 µM |  | > 100 µM | > 100 µM | > 100 µM | > 100 µM | > 100 µM | > 100 µM | > 100 µM | > 100 µM | > 100 µM
Cc1ccc(NC(=O)CC(=O)N2N=C(N3CCCCC3)CC2c2ccccc2)cc1 (stereo unspecified) | > 100 µM | > 100 µM | > 100 µM | > 100 µM | > 100 µM | > 100 µM | > 100 µM | > 100 µM | > 100 µM | > 100 µM |  | > 100 µM | > 100 µM | > 100 µM | > 100 µM | > 100 µM | > 100 µM | > 100 µM | > 100 µM | > 100 µM
O=C1CNc2cc(N3CCOCC3)ccc2N1 | > 100 µM | > 100 µM | > 100 µM | > 100 µM | > 100 µM |  | > 100 µM | > 100 µM | > 100 µM | > 100 µM | > 100 µM | > 100 µM | > 100 µM | > 100 µM | > 100 µM | > 100 µM | > 100 µM | > 100 µM | > 100 µM | > 100 µM
O=C(/C=C\c1ccsc1)c1ccccc1 | 18.5 µM | 26.2 µM | 14.6 µM | 19.7 µM | 22.2 µM | 24.6 µM | 34.4 µM | 12.3 µM | 24.1 µM | 24.9 µM | 30.8 µM | 24.6 µM | 7.58 µM | 19.7 µM | 27.2 µM | 27.7 µM | > 21.7 µM | 20.4 µM | 24.3 µM | 41.4 µM
O=S(=O)(O)c1ccc(Nc2ccnc3ccccc23)cc1 | > 100 µM | > 100 µM | > 100 µM | > 100 µM | > 100 µM | > 100 µM | > 100 µM | > 100 µM | > 100 µM | > 100 µM | > 100 µM | > 100 µM | > 100 µM | > 100 µM | > 100 µM | > 100 µM | > 100 µM | > 100 µM | > 100 µM | > 100 µM
Clc1cc2nc(C3CCCCO3)[nH]c2cc1Cl (stereo unspecified) | > 100 µM | 68.1 µM | > 100 µM | > 93.9 µM | > 100 µM | > 100 µM | > 100 µM | > 100 µM | > 100 µM | > 100 µM | > 100 µM | > 100 µM | > 100 µM | > 91.9 µM | > 73 µM | > 100 µM | > 100 µM | > 71.3 µM | 58.4 µM | > 100 µM
